Measured values reported in paper PMC9516332 (Frontiers in Oncology, 2022).

Tests used:
[1] = biological target: T1, panel of 255 wild-type kinases (Homo sapiens, UniProt O15264); settings: p38δ; 1 µmol/L single concentration; ref DOI: 10.1158/1535-7163.MCT-18-0877; cited from earlier work
T1 sequence (O15264 1-365): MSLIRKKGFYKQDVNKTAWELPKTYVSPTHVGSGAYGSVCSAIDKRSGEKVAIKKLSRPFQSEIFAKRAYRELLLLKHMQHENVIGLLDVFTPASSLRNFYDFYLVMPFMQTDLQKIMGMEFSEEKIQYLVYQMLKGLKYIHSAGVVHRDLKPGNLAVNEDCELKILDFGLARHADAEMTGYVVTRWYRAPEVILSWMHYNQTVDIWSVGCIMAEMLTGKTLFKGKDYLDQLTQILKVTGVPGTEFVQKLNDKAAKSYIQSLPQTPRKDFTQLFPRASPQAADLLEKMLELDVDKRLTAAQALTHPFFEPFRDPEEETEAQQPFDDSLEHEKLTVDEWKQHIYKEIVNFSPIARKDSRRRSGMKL

[2] = biological target: panel of 255 wild-type kinases (Homo sapiens, UniProt Q15119); settings: kinase PDHK2; 1 µmol/L single concentration; ref DOI: 10.1158/1535-7163.MCT-18-0877; cited from earlier work
[3] = biological target: panel of 255 wild-type kinases (Homo sapiens, UniProt Q9UBS0); settings: p70S6Kβ; 1 µmol/L single concentration; ref DOI: 10.1158/1535-7163.MCT-18-0877; cited from earlier work
[4] = biological target: panel of 255 wild-type kinases (Homo sapiens, UniProt Q9P286); settings: PAK5; 1 µmol/L single concentration; ref DOI: 10.1158/1535-7163.MCT-18-0877; cited from earlier work
AP-1060 (ETV6-NTRK3) = test: Cell viability assay; settings: read-out: IC50 in cell proliferation assay
134 cancer cell lines = test: Cell viability assay (ATPlite, 72 hours), IC50 on cancer cell line panel; settings: 134 cell line panel

C=CC(=O)Nc1cc(Nc2nccc(-c3cn(C)c4ccccc34)n2)c(OC)cc1N(C)CCN(C)C [osimertinib]
%-inhibition, p38δ [1]: -5.38%
%-inhibition at 1 µmol/L, PDHK2 [2]: -2%
%-inhibition, p70S6Kβ [3]: 20%
%-inhibition, PAK5 [4]: 6%
IC50 (AP-1060 (ETV6-NTRK3)): 1940 nM
lower IC50 of the most sensitive cell line compared to the panel average (134 cancer cell lines): around 300 fold
